Values joined by “and” are separate entries in the source; they are usually repeats but may differ in a detail not shown here. Equal values may be shown once.
Settings: Fluid (supercritical or subcritical phases), Coaxial cylinder method

FCC(F)(F)F [1,1,1,2-tetrafluoroethane]
Settings | thermal conductivity
375.76 K, 4223 kPa | 0.0752 W/m/K
375.77 K, 4161 kPa | 0.0731 W/m/K
375.79 K, 4241 kPa | 0.0673 W/m/K
375.8 K, 3504 kPa | 0.029 W/m/K
375.8 K, 4150 kPa | 0.0656 W/m/K
375.81 K, 3534 kPa | 0.0279 W/m/K
375.82 K, 4254 kPa | 0.0627 W/m/K
375.83 K, 4141 kPa | 0.06 W/m/K
375.84 K, 4279 kPa | 0.0589 W/m/K
375.85 K, 4296 kPa | 0.0573 W/m/K
375.86 K, 4316 kPa | 0.0558 W/m/K
375.86 K, 4334 kPa | 0.0551 W/m/K
375.87 K, 3165 kPa | 0.0261 W/m/K
375.87 K, 3264 kPa | 0.0264 W/m/K
375.87 K, 4132 kPa | 0.0548 W/m/K
375.87 K, 4349 kPa | 0.0546 W/m/K
375.87 K, 4363 kPa | 0.0539 W/m/K
375.88 K, 4387 kPa | 0.0535 W/m/K
375.88 K, 4432 kPa | 0.0526 W/m/K
375.88 K, 4461 kPa | 0.0526 W/m/K and 0.0524 W/m/K
375.89 K, 4451 kPa | 0.0521 W/m/K
375.89 K, 4630 kPa | 0.052 W/m/K
375.9 K, 2970 kPa | 0.0251 W/m/K
375.92 K, 4120 kPa | 0.0485 W/m/K
375.93 K, 2700 kPa | 0.0265 W/m/K
375.94 K, 2662 kPa | 0.024 W/m/K
375.95 K, 2429 kPa | 0.0235 W/m/K
375.95 K, 3993 kPa | 0.0374 W/m/K
375.99 K, 3936 kPa | 0.0349 W/m/K
375.99 K, 4072 kPa | 0.0417 W/m/K
376.01 K, 3908 kPa | 0.034 W/m/K
376.02 K, 4205 kPa | 0.0817 W/m/K
376.02 K, 4207 kPa | 0.0822 W/m/K
376.02 K, 4209 kPa | 0.0826 W/m/K
376.02 K, 4213 kPa | 0.0826 W/m/K
376.02 K, 4217 kPa | 0.0821 W/m/K
376.03 K, 4203 kPa | 0.0807 W/m/K
376.03 K, 4222 kPa | 0.0806 W/m/K
376.03 K, 4225 kPa | 0.0797 W/m/K
376.04 K, 1048 kPa | 0.0214 W/m/K
376.04 K, 4039 kPa | 0.0379 W/m/K
376.04 K, 4200 kPa | 0.0784 W/m/K
376.04 K, 4230 kPa | 0.0774 W/m/K
376.04 K, 4233 kPa | 0.0766 W/m/K
376.05 K, 773 kPa | 0.0212 W/m/K
376.05 K, 4198 kPa | 0.0754 W/m/K
376.06 K, 524 kPa | 0.0208 W/m/K
376.06 K, 4011 kPa | 0.0362 W/m/K
376.06 K, 4242 kPa | 0.0737 W/m/K
376.07 K, 200 kPa | 0.0205 W/m/K
376.07 K, 4190 kPa | 0.0693 W/m/K
376.07 K, 4250 kPa | 0.0708 W/m/K
376.08 K, 3975 kPa | 0.0352 W/m/K
376.08 K, 4260 kPa | 0.0686 W/m/K
376.09 K, 4270 kPa | 0.0669 W/m/K
376.09 K, 4280 kPa | 0.0656 W/m/K
376.1 K, 3941 kPa | 0.0342 W/m/K
376.1 K, 4180 kPa | 0.0622 W/m/K
376.1 K, 4300 kPa | 0.0638 W/m/K
376.11 K, 3913 kPa | 0.0333 W/m/K
376.11 K, 4320 kPa | 0.0624 W/m/K
376.14 K, 5520 kPa | 0.054 W/m/K
376.14 K, 5651 kPa | 0.0543 W/m/K
376.14 K, 5740 kPa | 0.0545 W/m/K
376.15 K, 4789 kPa | 0.0527 W/m/K
376.15 K, 5037 kPa | 0.0529 W/m/K
376.15 K, 5092 kPa | 0.0531 W/m/K
376.15 K, 5216 kPa | 0.0534 W/m/K
376.15 K, 5296 kPa | 0.0536 W/m/K
376.16 K, 4754 kPa | 0.0523 W/m/K
376.19 K, 4160 kPa | 0.0503 W/m/K
376.21 K, 3800 kPa | 0.0312 W/m/K
376.21 K, 4150 kPa | 0.048 W/m/K
376.23 K, 2350 kPa | 0.0256 W/m/K
376.23 K, 3734 kPa | 0.0301 W/m/K
376.26 K, 4264 kPa | 0.081 W/m/K
376.26 K, 4360 kPa | 0.0608 W/m/K
376.26 K, 4390 kPa | 0.06 W/m/K
376.27 K, 4230 kPa | 0.0811 W/m/K
376.28 K, 4218 kPa | 0.0789 W/m/K
376.28 K, 4267 kPa | 0.0803 W/m/K
376.29 K, 4214 kPa | 0.078 W/m/K
376.29 K, 4279 kPa | 0.0786 W/m/K
376.31 K, 4210 kPa | 0.077 W/m/K
376.33 K, 3030 kPa | 0.0242 W/m/K
376.34 K, 4199 kPa | 0.074 W/m/K
376.34 K, 4305 kPa | 0.0746 W/m/K
376.38 K, 2200 kPa | 0.0252 W/m/K
376.38 K, 4192 kPa | 0.0712 W/m/K
376.4 K, 3872 kPa | 0.0323 W/m/K
376.41 K, 3872 kPa | 0.0317 W/m/K
376.41 K, 4184 kPa | 0.0684 W/m/K
376.42 K, 3872 kPa | 0.0315 W/m/K
376.44 K, 3783 kPa | 0.0303 W/m/K
376.44 K, 4178 kPa | 0.0661 W/m/K
376.44 K, 4354 kPa | 0.0663 W/m/K
376.46 K, 3783 kPa | 0.0297 W/m/K
376.48 K, 3675 kPa | 0.0288 W/m/K
376.48 K, 4174 kPa | 0.0639 W/m/K
376.5 K, 3593 kPa | 0.0281 W/m/K
376.51 K, 2527 kPa | 0.0229 W/m/K
376.51 K, 3504 kPa | 0.0275 W/m/K
376.51 K, 4168 kPa | 0.0618 W/m/K
376.52 K, 4404 kPa | 0.0612 W/m/K
376.53 K, 3468 kPa | 0.0269 W/m/K
376.54 K, 4470 kPa | 0.059 W/m/K
376.54 K, 4580 kPa | 0.0586 W/m/K
376.55 K, 3302 kPa | 0.0263 W/m/K
376.55 K, 4165 kPa | 0.0598 W/m/K
376.56 K, 3210 kPa | 0.0257 W/m/K
376.57 K, 4451 kPa | 0.0587 W/m/K
376.58 K, 4158 kPa | 0.0579 W/m/K
376.59 K, 3210 kPa | 0.0248 W/m/K
376.6 K, 3210 kPa | 0.0246 W/m/K
376.61 K, 3210 kPa | 0.0244 W/m/K
376.61 K, 4150 kPa | 0.0562 W/m/K
376.65 K, 4147 kPa | 0.0545 W/m/K
376.68 K, 4141 kPa | 0.0524 W/m/K
376.68 K, 4680 kPa | 0.0583 W/m/K
376.69 K, 4140 kPa | 0.0427 W/m/K
376.73 K, 4100 kPa | 0.0395 W/m/K
376.78 K, 4040 kPa | 0.0364 W/m/K
376.81 K, 3990 kPa | 0.0346 W/m/K
376.82 K, 4117 kPa | 0.047 W/m/K
376.82 K, 4820 kPa | 0.0577 W/m/K
376.82 K, 4860 kPa | 0.0575 W/m/K
376.87 K, 3880 kPa | 0.0318 W/m/K
376.87 K, 4101 kPa | 0.0452 W/m/K
376.87 K, 4504 kPa | 0.0571 W/m/K
376.89 K, 4548 kPa | 0.0562 W/m/K
376.9 K, 3800 kPa | 0.0304 W/m/K
376.92 K, 3740 kPa | 0.0295 W/m/K
376.95 K, 3650 kPa | 0.0285 W/m/K
376.96 K, 2027 kPa | 0.0218 W/m/K
376.98 K, 3510 kPa | 0.0274 W/m/K
377.01 K, 4289 kPa | 0.072 W/m/K
377.01 K, 4294 kPa | 0.0724 W/m/K
377.01 K, 4307 kPa | 0.0724 W/m/K
377.01 K, 4309 kPa | 0.072 W/m/K
377.01 K, 4312 kPa | 0.0717 W/m/K
377.02 K, 4322 kPa | 0.0706 W/m/K
377.02 K, 4332 kPa | 0.0691 W/m/K
377.03 K, 4343 kPa | 0.0674 W/m/K
377.04 K, 4356 kPa | 0.0661 W/m/K
377.05 K, 4380 kPa | 0.0636 W/m/K
377.05 K, 4384 kPa | 0.0634 W/m/K
377.06 K, 4397 kPa | 0.0625 W/m/K
377.06 K, 4417 kPa | 0.0617 W/m/K
377.07 K, 4439 kPa | 0.0606 W/m/K
377.07 K, 4473 kPa | 0.06 W/m/K
377.08 K, 4495 kPa | 0.0595 W/m/K
377.08 K, 4538 kPa | 0.0587 W/m/K
377.17 K, 4275 kPa | 0.0671 W/m/K
377.18 K, 4270 kPa | 0.0648 W/m/K
377.19 K, 4266 kPa | 0.063 W/m/K
377.24 K, 4249 kPa | 0.0555 W/m/K
377.26 K, 4241 kPa | 0.0529 W/m/K
377.27 K, 4235 kPa | 0.0513 W/m/K
377.29 K, 4226 kPa | 0.0494 W/m/K
377.32 K, 4211 kPa | 0.0466 W/m/K
377.36 K, 4613 kPa | 0.0583 W/m/K
377.36 K, 4653 kPa | 0.0578 W/m/K
377.36 K, 4697 kPa | 0.0578 W/m/K
377.36 K, 4760 kPa | 0.0576 W/m/K
377.37 K, 4836 kPa | 0.0569 W/m/K
377.37 K, 4907 kPa | 0.0562 W/m/K
377.51 K, 4164 kPa | 0.0415 W/m/K
377.55 K, 4126 kPa | 0.039 W/m/K
377.58 K, 4079 kPa | 0.0366 W/m/K
377.73 K, 4701 kPa | 0.055 W/m/K
377.83 K, 4369 kPa | 0.0678 W/m/K
377.83 K, 4381 kPa | 0.0681 W/m/K
377.83 K, 4390 kPa | 0.0681 W/m/K
377.83 K, 4400 kPa | 0.0678 W/m/K
377.84 K, 4360 kPa | 0.0668 W/m/K
377.84 K, 4411 kPa | 0.0668 W/m/K
377.84 K, 4420 kPa | 0.0658 W/m/K
377.85 K, 4351 kPa | 0.0652 W/m/K
377.85 K, 4432 kPa | 0.0652 W/m/K
377.85 K, 4441 kPa | 0.064 W/m/K
377.86 K, 4451 kPa | 0.0631 W/m/K
377.86 K, 4460 kPa | 0.0623 W/m/K
377.86 K, 4997 kPa | 0.0548 W/m/K

Source: the NIST ThermoML archive (doi:10.1021/je900210h)
